Laboratory results as given in patent publication US7855166B2, “Sulfonylamino(thio)carbonyl compounds” (Bayer Cropscience GmbH, priority 2005, dated 2010).

Experiments:
[1] = test system: weed plants such as Sinapis alba, Chrysanthemum segetum, Avena sativa, Stellaria media, Echinochloa crus-galli, Lolium multiflorum, Setaria viridis, Abutilon …; assay: Pre-emergence effect on weeds (greenhouse pot test, visual scoring); type: in vivo; conditions: applied pre-emergence at a rate of 0.3 kg or less of active substance per hectare; scored after 3 to 4 weeks in comparison to untreated controls
[2] = test system: weed plants such as Sinapis alba, Echinochloa crus-galli, Lolium multiflorum, Chrysanthemum segetum, Setaria viridis, Abutilon theophrasti, Amaranthus …; assay: Post-emergence effect on weeds (greenhouse pot test, visual scoring); type: in vivo; conditions: applied post-emergence (three-leaf stage) at a rate of 0.3 kg or less of active substance per hectare; scored after about 3 to 4 weeks in comparison to untreated controls

## CCCOc1nn(C(=O)NS(=O)(=O)c2ccc(Cl)cc2I)c(=O)n1C1CC1 [Compound 1.875]
[1]
  herbicidal action against weed plants (visual scoring of plant damage or emergence damage): very good herbidical action
[2]
  herbicidal action against weed plants (effect scored visually): very good herbicidal action

## CCCCc1ccc(S(=O)(=O)NC(=O)n2nc(OC)n(C)c2=O)c(I)c1 [Compound 1.885]
[1]
  herbicidal action against weed plants (visual scoring of plant damage or emergence damage): very good herbidical action
[2]
  herbicidal action against weed plants (effect scored visually): very good herbicidal action

## COc1nn(C(=O)NS(=O)(=O)c2c(I)cccc2OCC(F)(F)F)c(=O)n1C [Compound 1.481]
[1]
  herbicidal action against weed plants (visual scoring of plant damage or emergence damage): very good herbidical action
[2]
  herbicidal action against weed plants (effect scored visually): very good herbicidal action

## CCOc1nn(C(=O)NS(=O)(=O)c2c(I)cccc2OC)c(=O)n1C [Compound 1.194]
[1]
  herbicidal action against weed plants (visual scoring of plant damage or emergence damage): very good herbidical action
[2]
  herbicidal action against weed plants (effect scored visually): very good herbicidal action

## COc1nn(C(=O)NS(=O)(=O)c2c(I)cccc2OC(F)(F)F)c(=O)n1C1CC1 [Compound 1.447]
[1]
  herbicidal action against weed plants (visual scoring of plant damage or emergence damage): very good herbidical action
[2]
  herbicidal action against weed plants (effect scored visually): very good herbicidal action

## CC(C)Oc1nn(C(=O)NS(=O)(=O)c2c(I)cccc2C(F)(F)F)c(=O)n1C [Compound 1.138]
[1]
  herbicidal action against weed plants (visual scoring of plant damage or emergence damage): very good herbidical action
[2]
  herbicidal action against weed plants (effect scored visually): very good herbicidal action

## CCCCc1ccc(S(=O)(=O)NC(=O)n2nc(OCCC)n(C3CC3)c2=O)c(I)c1 [Compound 1.888]
[1]
  herbicidal action against weed plants (visual scoring of plant damage or emergence damage): very good herbidical action
[2]
  herbicidal action against weed plants (effect scored visually): very good herbicidal action

## COc1nn(C(=O)NS(=O)(=O)c2c(I)cccc2OCC2CC2)c(=O)n1C1CC1 [Compound 1.353]
[1]
  herbicidal action against weed plants (visual scoring of plant damage or emergence damage): very good herbidical action
[2]
  herbicidal action against weed plants (effect scored visually): very good herbicidal action

## CCCOc1nn(C(=O)NS(=O)(=O)c2ccc(C)c(F)c2I)c(=O)n1C1CC1 [Compound 1.861]
[1]
  herbicidal action against weed plants (visual scoring of plant damage or emergence damage): very good herbidical action
[2]
  herbicidal action against weed plants (effect scored visually): very good herbicidal action

## CCCOc1nn(C(=O)NS(=O)(=O)c2c(I)cccc2OS(=O)(=O)N(C)C)c(=O)n1C [Compound 1.751]
[1]
  herbicidal action against weed plants (visual scoring of plant damage or emergence damage): very good herbidical action
[2]
  herbicidal action against weed plants (effect scored visually): very good herbicidal action

## CCOc1nn(C(=O)NS(=O)(=O)c2c(I)cccc2OCC2CC2)c(=O)n1C1CC1 [Compound 1.356]
[1]
  herbicidal action against weed plants (visual scoring of plant damage or emergence damage): very good herbidical action
[2]
  herbicidal action against weed plants (effect scored visually): very good herbicidal action

## CCOc1nn(C(=O)NS(=O)(=O)c2c(I)cccc2OCC(C)C)c(=O)n1C1CC1 [Compound 1.295]
[1]
  herbicidal action against weed plants (visual scoring of plant damage or emergence damage): very good herbidical action
[2]
  herbicidal action against weed plants (effect scored visually): very good herbicidal action

## CCCOc1cccc(I)c1S(=O)(=O)NC(=O)n1nc(OC(C)C)n(C)c1=O [Compound 1.236]
[1]
  herbicidal action against weed plants (visual scoring of plant damage or emergence damage): very good herbidical action
[2]
  herbicidal action against weed plants (effect scored visually): very good herbicidal action

## CCCOc1nn(C(=O)NS(=O)(=O)c2c(I)cccc2OC(F)(F)F)c(=O)n1C1CC1 [Compound 1.453]
[1]
  herbicidal action against weed plants (visual scoring of plant damage or emergence damage): very good herbidical action
[2]
  herbicidal action against weed plants (effect scored visually): very good herbicidal action

## COc1nn(C(=O)NS(=O)(=O)c2c(I)cccc2OCC(F)(F)C(F)(F)F)c(=O)n1C [Compound 1.544]
[1]
  herbicidal action against weed plants (visual scoring of plant damage or emergence damage): very good herbidical action
[2]
  herbicidal action against weed plants (effect scored visually): very good herbicidal action

## CCCOc1nn(C(=O)NS(=O)(=O)c2c(I)cccc2SC)c(=O)n1C [Compound 1.581]
[1]
  herbicidal action against weed plants (visual scoring of plant damage or emergence damage): very good herbidical action
[2]
  herbicidal action against weed plants (effect scored visually): very good herbicidal action

## CC(C)Oc1nn(C(=O)NS(=O)(=O)c2ccc(C(F)(F)F)cc2I)c(=O)n1C [Compound 1.895]
[1]
  herbicidal action against weed plants (visual scoring of plant damage or emergence damage): very good herbidical action
[2]
  herbicidal action against weed plants (effect scored visually): very good herbicidal action

## CCOc1nn(C(=O)NS(=O)(=O)c2c(I)cccc2OC(C)C)c(=O)n1C1CC1 [Compound 1.261]
[1]
  herbicidal action against weed plants (visual scoring of plant damage or emergence damage): very good herbidical action
[2]
  herbicidal action against weed plants (effect scored visually): very good herbicidal action

## Cc1cccc(I)c1S(=O)(=O)NC(=O)n1nc(OC(C)C)n(C)c1=O [Compound 1.040]
[1]
  herbicidal action against weed plants (visual scoring of plant damage or emergence damage): very good herbidical action
[2]
  herbicidal action against weed plants (effect scored visually): very good herbicidal action

## COc1nn(C(=O)NS(=O)(=O)c2ccccc2I)c(=O)n1C [Compound 1.001]
[1]
  herbicidal action against weed plants (visual scoring of plant damage or emergence damage): very good herbidical action
[2]
  herbicidal action against weed plants (effect scored visually): very good herbicidal action

## CCCOc1nn(C(=O)NS(=O)(=O)c2ccc(F)cc2I)c(=O)n1C [Compound 1.824]
[1]
  herbicidal action against weed plants (visual scoring of plant damage or emergence damage): very good herbidical action
[2]
  herbicidal action against weed plants (effect scored visually): very good herbicidal action

## CSc1cccc(I)c1S(=O)(=O)NC(=O)n1nc(OC(C)C)n(C)c1=O [Compound 1.582]
[1]
  herbicidal action against weed plants (visual scoring of plant damage or emergence damage): very good herbidical action
[2]
  herbicidal action against weed plants (effect scored visually): very good herbicidal action

## COc1nn(C(=O)NS(=O)(=O)c2c(I)cccc2OCC(F)(F)C(F)(F)F)c(=O)n1C1CC1 [Compound 1.552]
[1]
  herbicidal action against weed plants (visual scoring of plant damage or emergence damage): very good herbidical action
[2]
  herbicidal action against weed plants (effect scored visually): very good herbicidal action

## CCCc1ccc(S(=O)(=O)NC(=O)n2nc(OC)n(C3CC3)c2=O)c(I)c1 [Compound 1.880]
[1]
  herbicidal action against weed plants (visual scoring of plant damage or emergence damage): very good herbidical action
[2]
  herbicidal action against weed plants (effect scored visually): very good herbicidal action

## CCCOc1nn(C(=O)NS(=O)(=O)c2c(I)cccc2OCC(F)F)c(=O)n1C [Compound 1.505]
[1]
  herbicidal action against weed plants (visual scoring of plant damage or emergence damage): very good herbidical action
[2]
  herbicidal action against weed plants (effect scored visually): very good herbicidal action

## COc1nn(C(=O)NS(=O)(=O)c2ccc(F)cc2I)c(=O)n1C1CC1 [Compound 1.825]
[1]
  herbicidal action against weed plants (visual scoring of plant damage or emergence damage): very good herbidical action
[2]
  herbicidal action against weed plants (effect scored visually): very good herbicidal action

## CCCOc1nn(C(=O)NS(=O)(=O)c2c(I)cccc2OC)c(=O)n1C [Compound 1.195]
[1]
  herbicidal action against weed plants (visual scoring of plant damage or emergence damage): very good herbidical action
[2]
  herbicidal action against weed plants (effect scored visually): very good herbicidal action

## CCCOc1cccc(I)c1S(=O)(=O)NC(=O)n1nc(OC)n(C2CC2)c1=O [Compound 1.238]
[1]
  herbicidal action against weed plants (visual scoring of plant damage or emergence damage): very good herbidical action
[2]
  herbicidal action against weed plants (effect scored visually): very good herbicidal action

## COc1nn(C(=O)NS(=O)(=O)c2c(I)cccc2OCC(F)F)c(=O)n1C [Compound 1.501]
[1]
  herbicidal action against weed plants (visual scoring of plant damage or emergence damage): very good herbidical action
[2]
  herbicidal action against weed plants (effect scored visually): very good herbicidal action
